Assay results from ChEMBL document CHEMBL1148319, “A molecular basis for the selectivity of thiadiazole urea inhibitors with stromelysin-1 and gelatinase-A from generalized born molecular dynamics simulations” (J Med Chem, 2004).
pKi: −log10 of the molar value.

Target: 72 kDa type IV collagenase (Homo sapiens, UniProt P08253)
Sequence (P08253 whole entry): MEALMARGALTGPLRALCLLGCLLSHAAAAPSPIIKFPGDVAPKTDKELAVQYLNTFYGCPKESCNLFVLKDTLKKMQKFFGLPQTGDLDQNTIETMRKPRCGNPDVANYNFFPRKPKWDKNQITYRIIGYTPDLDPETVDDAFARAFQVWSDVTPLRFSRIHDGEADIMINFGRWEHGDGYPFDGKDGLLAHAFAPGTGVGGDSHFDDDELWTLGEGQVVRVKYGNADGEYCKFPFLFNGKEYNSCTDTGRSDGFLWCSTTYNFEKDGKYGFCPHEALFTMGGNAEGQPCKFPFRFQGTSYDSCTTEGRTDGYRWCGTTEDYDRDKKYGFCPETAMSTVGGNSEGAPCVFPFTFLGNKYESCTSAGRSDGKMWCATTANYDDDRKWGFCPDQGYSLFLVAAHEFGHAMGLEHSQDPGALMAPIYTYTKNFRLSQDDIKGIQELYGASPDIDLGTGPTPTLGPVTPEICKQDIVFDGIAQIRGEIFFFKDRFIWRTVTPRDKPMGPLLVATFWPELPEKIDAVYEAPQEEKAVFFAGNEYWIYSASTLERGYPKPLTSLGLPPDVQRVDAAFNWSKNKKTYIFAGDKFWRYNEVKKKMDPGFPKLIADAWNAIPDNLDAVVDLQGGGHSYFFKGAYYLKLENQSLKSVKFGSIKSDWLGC
Description: Inhibition of human Matrix metalloprotease-2 (gelatinase-A)

pKi	Compound
5.52	CNC(=O)[C@H](Cc1ccccc1)NC(=O)Nc1nnc(S)s1
< 4.00	CNC(=O)CNC(=O)Nc1n[nH]c(=S)s1
5.52	CNC(=O)[C@H](Cc1c(F)c(F)c(F)c(F)c1F)NC(=O)Nc1nnc(S)s1
< 3.70	CNC(=O)[C@H](CO)NC(=O)Nc1n[nH]c(=S)s1
3.65	CN(C)C(=O)[C@H](Cc1ccccc1)NC(=O)Nc1nnc(S)s1
< 3.70	NC(=O)[C@H](Cc1ccccc1)NC(=O)Nc1nnc(S)s1
